Tests used:
[1] = Stability in mouse serum at 37° C. (radiochemical purity by TLC); format: in vitro ADME; conditions: 4 h
Method: (§1) The radiochemical purity of ^99mTc-CN7DM was determined by TLC after being placed in normal saline at room temperature and in mouse serum at 37° C. for 4 h.

mice bearing S180 tumors = experiment: Biodistribution determination in tumor-bearing mice; format: in vivo; conditions: for Blood uptake / Bone uptake / Heart uptake / Kidney uptake / Liver uptake / Lung uptake / Muscle uptake / Small intestine uptake / Spleen uptake / Thyroid gland uptake / Tumor uptake: n = 5, mean ± SD; for Tumor uptake: S180 tumor
Method: 0.1 mL of the ^99mTc-CN7DM labeling solution (370 kBq) was injected into mice bearing S180 tumors through the tail vein. After recording the injection time, the mice were subjected to sacrificing by cervical […] at different time points of 30 min and 120 min (5 mice were executed at each time), dissecting, taking out tissues or organs of interest such as heart, liver, lungs, kidneys, spleen, bone, muscles, small intestine, blood and tumors. A radioactivity count of each of the tissues or organs was measured by the γ-counter, and uptake value of each of the tissues or organs in % ID/g was obtained by converting a mass of each of the tissues or organs.

[2] = Stability in normal saline at room temperature (radiochemical purity by TLC); format: physicochemical; conditions: 4 h
Method: as §1

[3] = Determination of lipid-water partition coefficient (n-octanol/PBS); format: physicochemical; conditions: n-octanol / PBS 0.025 M, pH 7.4
Method: To a 5 mL centrifuge tube were added 100 μL of a ^99mTc-CN7DM solution with a radioactivity of 10 μCi, 1 mL of n-octanol and 900 μL of phosphate buffered saline (PBS) (0.025 M and pH 7.4). The mixture was vortexed at a rotation speed of 2,500 rpm for 3 min, subjected to standing for stratification, and centrifuged at 9,000 rpm in a centrifuge for 5 min. Three samples (each for 100 μL) were taken from each of the two phases, and determined by a γ-counter for the radioactivity counts.

[4] = 30 min after tail vein injection
[5] = 120 min after tail vein injection

In the case of `[99Tc+].[C-]#[N+]CCCCCCCC(=O)NC1C(O)OC(CO)C(O)C1O.[C-]#[N+]CCCCCCCC(=O)NC1C(O)OC(CO)C(O)C1O.[C-]#[N+]CCCCCCCC(=O)NC1C(O)OC(CO)C(O)C1O.[C-]#[N+]CCCCCCCC(=O)NC1C(O)OC(CO)C(O)C1O.[C-]#[N+]CCCCCCCC(=O)NC1C(O)OC(CO)C(O)C1O.[C-]#[N+]CCCCCCCC(=O)NC1C(O)OC(CO)C(O)C1O` (centres unmarked) [^99mTc-CN7DM], the “radiochemical purity after standing (stability)” value [1] is reported as “greater than 90%”, the Tumor/Blood ratio (mice bearing S180 tumors; [4]) is reported as 3.79 and the Tumor/Muscle ratio (mice bearing S180 tumors; [4]) is reported as 3.25. The Blood uptake (mice bearing S180 tumors; [4]) was 1.61 ± 0.17 % ID/g, the Bone uptake (mice bearing S180 tumors; [4]) was 1.41 ± 0.17 % ID/g and the Heart uptake (mice bearing S180 tumors; [4]) was 2.08 ± 0.26 % ID/g. For the same molecule, the Kidney uptake (mice bearing S180 tumors; [4]) was 6.22 ± 0.91 % ID/g, the Liver uptake (mice bearing S180 tumors; [4]) was 2.91 ± 0.23 % ID/g and the Lung uptake (mice bearing S180 tumors; [4]) was 1.86 ± 0.19 % ID/g. For the same molecule, the Muscle uptake (mice bearing S180 tumors; [4]) was 1.88 ± 0.16 % ID/g, the Small intestine uptake (mice bearing S180 tumors; [4]) was 1.05 ± 0.20 % ID/g and the Spleen uptake (mice bearing S180 tumors; [4]) was 1.23 ± 0.11 % ID/g. The Thyroid gland uptake (mice bearing S180 tumors; [4]) was 0.04 ± 0.01 % ID, the Tumor/Blood ratio (mice bearing S180 tumors; [5]) was 63.48 and the Tumor/Muscle ratio (mice bearing S180 tumors; [5]) was 6.18. For the same molecule, the Blood uptake (mice bearing S180 tumors; [5]) was 0.09 ± 0.02 % ID/g, the Bone uptake (mice bearing S180 tumors; [5]) was 0.76 ± 0.17 % ID/g and the Heart uptake (mice bearing S180 tumors; [5]) was 1.40 ± 0.14 % ID/g. It also gave a Kidney uptake (mice bearing S180 tumors; [5]) of 3.12 ± 0.82 % ID/g, a Liver uptake (mice bearing S180 tumors; [5]) of 2.13 ± 0.46 % ID/g and a Lung uptake (mice bearing S180 tumors; [5]) of 0.76 ± 0.20 % ID/g. For the same molecule, the Muscle uptake (mice bearing S180 tumors; [5]) was 0.96 ± 0.12 % ID/g, the Small intestine uptake (mice bearing S180 tumors; [5]) was 0.42 ± 0.13 % ID/g and the Spleen uptake (mice bearing S180 tumors; [5]) was 0.80 ± 0.15 % ID/g. It also gave a Thyroid gland uptake (mice bearing S180 tumors; [5]) of 0.02 ± 0.00 % ID, a Tumor uptake (mice bearing S180 tumors; [4]) of 6.11 ± 0.76 % ID/g and a Tumor uptake (mice bearing S180 tumors; [5]) of 5.92 ± 0.30 % ID/g. For the same molecule, the “radiochemical purity after standing (stability)” value [2] was “greater than 90%” and the “log P (lipid-water partition coefficient)” value [3] was −3.15±0.06.
